The text below walks through data of patent publication US20240261429A1, “CPMV BINDING PEPTIDE” (The Regents of the University of California, priority 2021, published 2024).

Primed or numbered codes have the meaning given here. Ends that are not written are not given here. Peptide text beside a SMILES is read from it. * marks the point of attachment. FITC = O=C1OC2(c3ccc(O)cc3Oc3cc(O)ccc32)c2ccc(NC(=S)*)cc21; Biotin = O=C1N[C@H]2[C@H](CS[C@H]2CCCCC(=O)*)N1; FITC′ = fluorescein isothiocyanate

The target of assay [1] is p185HER2/neu (Homo sapiens, UniProt P04626). The settings on record: binding to p185HER2/neu; cited from earlier work.
The test system of assay [2] is CPMV. Put plainly: Native agarose gel electrophoresis of FITC peptides with CPMV. Format: binding, Cowpea mosaic virus. The settings on record: 1.2% agarose gel after dual-purification. The procedure:
10 μg of FITC peptide conjugated CPMV was loaded onto a 1.2% (w/v) TAE agarose gel. 10 μg of CPMV and 1 μg of free CPMV-FITC peptide was loaded as control. The samples were electrophoresed at 110 V for 40 min.
The dual functional CBP-AHNP peptide was synthesized by fusing AHNP to the C-terminus of the CBP domain. A control peptide (*AHNP) without the CBP domain was also synthesized; both peptides were modified with a FITC label at their C terminus. CPMV-CBP-AHNP and controls were characterized by native agarose gel electrophoresis as described above.

Assay [3] concerns the target CPMV. Put plainly: Competitive ELISA between synthetic CBP peptides and monoclonal phage MPSEF. It is filed as binding, Cowpea mosaic virus. The settings on record: for Kd: competition binding ELISA against MPSEF, read-out: dissociation constant KD. The procedure:
5 μg of CPMV (in 0.1 M bicarbonate buffer, pH 8.6) was coated into each well of a Nunc Maxisorp™ flat-bottom 96-well plate and incubated overnight at 4° C. 2% (w/v) BSA was also coated to serve as negative control. Next day, the plate was blocked with 2% (w/v) BSA and incubated at rt with shaking at 800 rpm for 1 h. Subsequently, the plate was washed thrice with 0.1% TBST for 1 min. 100 μL of amplified phage from the last biopanning cycle was added into each well followed by incubation at rt with shaking at 800 rpm for 1 h. Later, the plate was washed thrice with 0.5% TBST for 5 min. 100 μL of 1:500 dilution of HRP-conjugated anti-M monoclonal antibody (Abcam ab50370) was added and incubated at rt for 1 h with shaking at 8 rpm. The plate was again washed thrice with 0.5% TBST for 5 min followed by adding 100 μL of tetramethylbenzidine (TMB) substrate (Thermo Scientific Pierce) into each well. The plate was incubated at dark for 10 min and the absorbance was measured at 370 nm using an Infinite 200 Rx plate reader (Tecan Life Sciences) with 25 flashes in 96-well flat-bottom plate mode. Monoclonal phages with at least 0.3 difference in absorbance value between CPMV and BSA were subjected for DNA sequencing (Eurofins Genomics).
Competitive ELISA was performed as mentioned in ‘Monoclonal ELISA’ with modifications. Two-fold serial dilutions of CPMV peptide (0.500 μg, 0.250 μg, 0.125 μg, 0.063 μg, 0.031 μg, 0.016 μg, 0.008 μg, 0.004 μg, 0.002 μg) were added separately into the well together with 10^9 pfu of monoclonal phages. The reaction after incubation with TMB substrate was stopped with 50 μL of 2 N H2SO4. Colorimetric detection was carried out by measurement at 450 nm using an Infinite 200 Rx plate reader (Tecan Life Sciences) with 25 flashes in 96-well flat-bottom plate mode.
To determine the dissociation constant KD, competition binding ELISAs were set up. Here binding of synthetic CBPs (used in a dilution series) to CPMV was competed against MPSEF (used as constant amount). Phage MPSEF was detected by HRP-conjugated anti-M13 monoclonal antibody and measured at OD450 nm. CPMV bound MPSEF (OD450 nm) is inversely proportionate to the amount of peptide loaded for competition. The amount of MPSEF binding to CPMV reduced with the increasing amount of synthetic peptides, subsequently yielded lower absorbance value (FIG. 4G and FIG. 4H). […] Different modes of peptide modification resulted different IC50 and KD values despite having the exact same sequence.
A general note: An ELISA detects its analyte on a solid surface through an enzyme-linked reagent.

Assay [4] concerns CPMV coat proteins (S and L protein). Put plainly: Modified western blot of CBP-biotin on denatured CPMV coat proteins. Format: binding, Cowpea mosaic virus. The settings on record: denatured S and L protein on nitrocellulose, streptavidin HRP (FIG. 3C). The procedure: 10 μg of CPMV was loaded onto a NuPage™ 12% bis-tris gel (Thermo Fisher Scientific) and electrophoresed for 40 min at 200 V. Proteins were then blotted onto Amersham Protran 0.45 Nitrocellulose membrane (GE Healthcare) at 25 V for 2 h. The membrane was then blocked with 5% (w/v) BSA for 1 h at rt with gentle shaking. Subsequently, the membrane was washed thrice with 0.5% TBST for 1 min. 1 μg/mL of CPMV-biotin peptide was added to the membrane for 1 h incubation at rt. The membrane was then washed with 0.5% TBST for min. 100 μL of 1:500 dilution of HRP-conjugated anti-streptavidin monoclonal antibody (Abcam ab7403) was added and incubated at rt for 1 h. Following three washes with 0.5% TBST, the membrane was developed with DAB substrate kit, peroxidase HRP (Vector Laboratories) for 5-10 min. The DAB reagent was drained off and the bands were documented with ProteinSimple FluorChem®.
(In general: Immunoblotting shows a protein as a band on a membrane.)

Assay [5] has as its system CPMV. Put plainly: Peptide ELISA of CBP-biotin on streptavidin plate. The settings on record: 5 μg CPMV, vs. control without CPMV, p<0.0001 (FIG. 4E). Format: binding, Cowpea mosaic virus. The procedure:
The plate was blocked with 2% (w/v) BSA followed by three washings with 0.1% TBST for 1 min per wash. 5 μg of CPMV was added for binding and incubated for 1 h at rt with shaking at 8 rpm. Then the plate was washed thrice with 0.5% TBST for 5 min each wash. 100 μL of anti-CPMV rabbit polyclonal antibodies (1:500 dilution) was added to the wells followed by incubation at rt for 1 h with shaking at 800 rpm. Following three washing steps using 0.5% TBST for 5 min, 100 μL of HRP conjugated goat anti-rabbit antibodies (1:5000 dilution; Pacific Immunology) was added to the wells and incubated at rt for 1 h with shaking at 800 rpm. Finally, the plate was washed thrice with 0.5% TBST followed by adding 100 μL of TMB substrate (Thermo Scientific Pierce) into each well. The plate was incubated in the dark for 5-10 min and the reaction was stopped with 50 μL of 2N H2SO4. Absorbance was measured at 450 nm using an Infinite 200 Rx plate reader (Tecan Life Sciences) with 25 flashes in 96-well flat-bottom plate mode.
Next, Applicant performed a series of enzyme-linked immunosorbent assays (ELISAs) using the CBP-FITC and CBP-biotin to further probe their binding affinity to CPMV. CBP-biotin was coated onto a streptavidin-functionalized plate, this was followed by incubation with CPMV (CPMV was omitted for the control) (FIG. 4E). […]

Assay [6] concerns the target T1, Cowpea mosaic virus (CPMV) (Cowpea mosaic virus), P03599.
T1 chain 1: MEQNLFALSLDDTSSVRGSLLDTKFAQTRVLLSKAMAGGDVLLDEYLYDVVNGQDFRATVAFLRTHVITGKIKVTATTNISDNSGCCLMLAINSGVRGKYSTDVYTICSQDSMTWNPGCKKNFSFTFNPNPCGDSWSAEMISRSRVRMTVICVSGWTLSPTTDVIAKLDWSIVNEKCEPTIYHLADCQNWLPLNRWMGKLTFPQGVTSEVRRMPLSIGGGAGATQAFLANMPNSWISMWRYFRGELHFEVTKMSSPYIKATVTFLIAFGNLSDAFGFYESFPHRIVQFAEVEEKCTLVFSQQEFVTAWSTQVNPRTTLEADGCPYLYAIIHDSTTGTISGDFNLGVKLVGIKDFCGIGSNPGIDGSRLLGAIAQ
T1 chain 2: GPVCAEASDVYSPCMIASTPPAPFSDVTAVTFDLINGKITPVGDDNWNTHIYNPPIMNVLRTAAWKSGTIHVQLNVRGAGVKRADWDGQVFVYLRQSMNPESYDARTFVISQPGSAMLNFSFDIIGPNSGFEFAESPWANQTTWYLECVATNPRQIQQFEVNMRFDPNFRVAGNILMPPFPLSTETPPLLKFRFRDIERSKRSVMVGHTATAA
Put plainly: UV/visible spectroscopy of the purified complex (500-molar excess of peptide).

In assay [7] the target is T1, Cowpea mosaic virus (CPMV) (Cowpea …). Put plainly: from competition binding ELISA against MPSEF phage on coated CPMV.
Assay [8] shares this target. The experiment in a line: competitive ELISA against MPSEF phage (10^9 pfu) on coated CPMV.
Setting [9] is: peptide dilution series competed against constant MPSEF phage for CPMV, OD450 nm.

As for “FCDGFYACYMDV [AHNP, cyclic peptide derived from monoclonal antibody trastuzumab, HER2 ligand]”, the Kd in assay [1] is 300 nM.

With “N-KKKKKKKKDDDD-FCDGFYACYMDVK/FITC/-C (KKKKKKKKDDDDFCDGFYACYMDVK; not fully specified (C-terminus, bridges); cysteine pairing not given here; also: FITC label at C-terminal Lys) [*AHNP, control peptide without the CBP domain, FITC label at C terminus, reference compound]”, the “labeling of CPMV seen by native agarose gel electrophoresis (FITC signal with RNA and protein band)” value in assay [2] is listed as “no non-specific interaction”.

On to “N-GWRVSEF-KKKKKKKKDDDD-FCDGFYACYMDVK/FITC/-C (GWRVSEFKKKKKKKKDDDDFCDGFYACYMDVK; not fully specified (C-terminus, bridges); cysteine pairing not given here; also: FITC label at C-terminal Lys) [CBP-AHNP, dual functional peptide, AHNP fused to the C-terminus of the CBP domain, FITC label]”, for which the “labeling of CPMV seen by native agarose gel electrophoresis (FITC signal with RNA and protein band)” value in assay [2] is reported as “successful labeling”.

Regarding `CC(C)[C@H](NC(=O)[C@H](CCCNC(=N)N)NC(=O)[C@H](Cc1c[nH]c2ccccc12)NC(=O)CN)C(=O)N[C@@H](CO)C(=O)N[C@@H](CCC(=O)O)C(=O)N[C@@H](Cc1ccccc1)C(=O)NCC(=O)NCC(=O)NCC(=O)N[C@@H](CO)C(=O)N[C@@H](CCCCNC(=S)Nc1ccc2c(c1)C(=O)OC21c2ccc(O)cc2Oc2cc(O)ccc21)C(=O)O` [CBP-FITC] (H-GWRVSEFGGGSK(FITC)-OH; N-terminus and C-terminus assumed), the equilibrium dissociation constant (Kd) in assay [3] was roughly 700 nM. In assay [3] (setting [9]), the “half maximal inhibition concentration (IC50)” value is 0.56 µg.

`CC(C)[C@H](NC(=O)[C@H](CCCNC(=N)N)NC(=O)[C@H](Cc1c[nH]c2ccccc12)NC(=O)CN)C(=O)N[C@@H](CO)C(=O)N[C@@H](CCC(=O)O)C(=O)N[C@@H](Cc1ccccc1)C(=O)NCC(=O)NCC(=O)NCC(=O)N[C@@H](CO)C(=O)N[C@@H](CCCCNC(=O)CCCC[C@@H]1SC[C@@H]2NC(=O)N[C@@H]21)C(=O)O` [CBP-biotin] (H-GWRVSEFGGGSK(Biotin)-OH; N-terminus and C-terminus assumed): in assay [4], the “binding to CPMV coat proteins in western blot” value is listed as “bound to the CPMV coat proteins”. Also, the “CPMV binding in ELISA” value in assay [5] is reported as “consistent with CPMV binding”. The Kd in assay [3] is roughly 7 nM. Further, the “half maximal inhibition concentration (IC50)” value in assay [3] (setting [9]) was 0.17 µg. The IC50 in assay [3] (peptide dilution series competed against constant MPSEF phage for CPMV, OD450 nm, read-out: half maximal inhibition concentration (IC50)) was 1140 nM.

GWRVSEFGGGSK-{FITC′} (not fully specified (residue 12)) [CBP-FITC (N-…/FITC/-C)] came in with a CBP-FITC peptides per CPMV particle (peptides per CPMV particle) in assay [6] of 6. In addition, in assay [7], the Kd worked out at 700 nM. In assay [8], this molecule returned an IC50 of 3340 nM.

GWRVSEFGGGSK-biotin (not fully specified (residue 12)) [CBP-biotin (N-…/biotin/-C)]: in assay [7], the Kd amounted to 7 nM. Besides, the IC50 in assay [8] was 1140 nM.

What is called Kd is the concentration at which binding is half-saturated.
